Test results: paper PMC9038752, “Molecular mechanisms of bifunctional vitamin D receptor agonist-histone deacetylase inhibitor hybrid molecules in triple-negative breast cancer” (Scientific Reports, 2022)
Values after ≈ are worked out from the molar mass of the structure shown.

Assays:
4TO7 cells = assay: RNAseq gene expression profiling in 4TO7 cells; assay type: cell-based, mouse; conditions: relative to control
Protocol: Cells were treated for 6 h to focus more on genes directly regulated by the VDR, or for 24 or 48 h to gain insight into longer-term effects on gene expression.
McGill Genome Centre performed a quality control before sequencing in paired-end at 50 M reads by Illumina NovaSeq 6000 S4 PE100. Sets of genes regulated in the different conditions were sent to us and downstream analysis were performed.
Table S1 and Table S2 : See Excel files with RNAseq results and analysis
48 hours prior to RNA extraction. Samples were prepared in triplicate and run on Illumina NovaSeq 6000 S4
PE100. For assessing differential gene expression for RNAseq data, the LIMMA package inR was used.
RNAseq results and statistical analyses from D, S, S+D, DK-406, and AM-193 conditions measured relative to
AM-193 for 6 or 24 hours prior to RNA extraction . Samples were prepared in triplicate and run on Illumina
NovaSeq 6000 S4 PE100. For assessing differential gene expression for RNAseq data, the LIMMA package in R was […]

[1] = tested on: 4T1 mouse model of triple negative breast cancer; parameters: method as in PMID 28847749; conditions: aggressive 4T1 mouse model of TNBC; cited from earlier work
purified HDAC6 = biological target: T1, purified HDAC6 (Homo sapiens, UniProt Q9UBN7); assay: Fluorogenic HDAC inhibition assay, HDAC6; assay type: biochemical; conditions: purified HDAC6, fluorometric substrate
T1 construct: purchased Cayman Chemical
T1 sequence (Q9UBN7 1-1215): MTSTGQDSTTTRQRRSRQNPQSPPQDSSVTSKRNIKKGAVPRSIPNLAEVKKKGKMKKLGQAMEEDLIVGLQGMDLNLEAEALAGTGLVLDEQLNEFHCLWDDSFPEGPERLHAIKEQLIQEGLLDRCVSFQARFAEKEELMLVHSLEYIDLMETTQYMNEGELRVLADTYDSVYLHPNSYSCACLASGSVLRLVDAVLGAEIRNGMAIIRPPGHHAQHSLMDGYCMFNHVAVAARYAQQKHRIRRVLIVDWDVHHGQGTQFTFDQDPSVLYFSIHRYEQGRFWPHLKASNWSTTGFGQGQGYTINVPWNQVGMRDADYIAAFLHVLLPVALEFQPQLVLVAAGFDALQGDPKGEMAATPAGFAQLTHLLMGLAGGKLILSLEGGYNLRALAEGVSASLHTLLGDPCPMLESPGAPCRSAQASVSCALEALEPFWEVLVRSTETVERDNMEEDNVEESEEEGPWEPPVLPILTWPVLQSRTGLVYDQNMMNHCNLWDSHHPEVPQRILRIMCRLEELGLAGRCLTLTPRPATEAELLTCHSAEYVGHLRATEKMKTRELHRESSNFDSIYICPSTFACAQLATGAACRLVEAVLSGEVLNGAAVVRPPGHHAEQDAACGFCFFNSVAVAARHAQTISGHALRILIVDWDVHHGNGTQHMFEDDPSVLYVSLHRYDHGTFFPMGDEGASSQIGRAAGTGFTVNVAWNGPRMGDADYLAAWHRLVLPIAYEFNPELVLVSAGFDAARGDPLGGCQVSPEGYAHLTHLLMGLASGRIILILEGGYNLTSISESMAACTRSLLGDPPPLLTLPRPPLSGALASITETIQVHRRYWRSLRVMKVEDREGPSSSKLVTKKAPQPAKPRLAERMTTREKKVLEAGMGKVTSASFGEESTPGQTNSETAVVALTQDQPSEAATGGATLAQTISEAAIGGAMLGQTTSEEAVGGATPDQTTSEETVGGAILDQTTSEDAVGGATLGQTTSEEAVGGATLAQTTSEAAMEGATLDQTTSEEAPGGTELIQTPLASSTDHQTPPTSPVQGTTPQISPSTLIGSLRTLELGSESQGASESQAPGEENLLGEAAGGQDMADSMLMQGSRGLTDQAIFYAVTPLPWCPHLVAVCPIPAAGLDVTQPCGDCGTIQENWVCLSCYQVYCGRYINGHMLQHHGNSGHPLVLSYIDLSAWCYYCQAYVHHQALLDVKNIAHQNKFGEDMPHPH
Protocol: (§1) The hybrids were assessed to determine their HDACi and VDR agonist activity as well as their antiproliferative properties relative to DK-406. HDACi activity was assessed in vitro using an acetylated lysine substrate that releases a fluorescent reporter upon HDACi deacetylation and subsequent trypsin digestion. Increasing sidechain length of pyrimidine hybrids enhanced the potency of HDAC6 inhibition, with several compounds inhibiting HDAC6 with a sub-micromolar IC50, similar to that of DK-406 (Fig. 4a). […] Next, we analyzed the effects of compounds on levels of H3K9 and H3K27 acetylation in 4TO7 cells, which are controlled by class I HDACs[29],[30]. […] We also tested the capacity of analogues to induce tubulin acetylation, controlled by class II enzyme HDAC6[32], in 4TO7 cells. Based on their relative efficacy in cytotoxicity assays (see below, Fig. 5c,d), we used 10^–5 M DK-406 and 10^–6 M AM-193 for these studies.
(§2) Figure 4 (a) Results of in vitro assays for inhibition of purified HDAC2 and HDAC6 by DK-406 and heterocyclic hybrids as measured by inhibition of deacetylation of a fluorometric substrate (see Methods for details). (b–d) Left: Western blotting analysis of histone 3 lysine 9 (H3K9; b), H3K27 (c), or acetylated tubulin (d), levels in 4TO7 cells treated with ligands for 6 h. Representative western-blots are shown from at least 3 biological replicates. Right: Graphs representing the average of the replicates, bars are mean ± SD. Each condition was compared to control. *: p ≤ 0.05, **: p ≤ 0.01, ***: p ≤ 0.001, ****: p ≤ 0.0001, ns: not significant. TEXT PRINTED IN THE PICTURE: (a) DK-406: HDAC6 IC50 (μM): 0.6; HDAC2 IC50 (μM): 0.5 | (a) AM-155: HDAC6 IC50 (μM): 2.8; HDAC2 IC50 (μM): 1.7 | (a) AM-171: HDAC6 IC50 (μM): 0.5; HDAC2 IC50 (μM): 9.6 | (a) AM-172: HDAC6 IC50 (μM): 0.3; HDAC2 IC50 (μM): 7.7 | (a) AM-191: HDAC6 IC50 (μM): 1.9; HDAC2 IC50 (μM): 8.1 | (a) AM-192: HDAC6 IC50 (μM): 0.5; HDAC2 IC50 (μM): 6.5 | (a) AM-193: HDAC6 IC50 (μM): 0.3; HDAC2 IC50 (μM): 7.2
(§3) Purified HDAC2 and HDAC6 were purchased from Cayman Chemical. Boc-Lys(Ac)-7-amino-4-methylcoumarin (BocLys(Ac)-AMC) was used as substrate for the HDAC assays. Substrate solution was prepared as follow: Boc(Lys-Ac)-AMC was dissolved in DMSO and diluted with HDAC buffer (15 mM tris–HCl [pH 8.1], 250 μM EDTA, 250 mM NaCl, 10% glycerol) to give 1 mM solutions containing 1.7% DMSO. Trypsin was used to stop the reaction, releasing free AMC. The trypsin solution was prepared as follow: trypsin was dissolved in HDAC buffer to give a concentration of 10 mg/mL. Release of AMC was monitored by measuring the fluorescence at 460 nm (lex = 390 nm) with a microplate reader (SpectraMax Gemini from Molecular Devices) at 37 °C. The AMC signals were recorded against a blank with buffer, substrate and trypsin but without the enzyme. All experiments were carried out at least in triplicate.
(§4) For HDAC inhibition assays, inhibitor diluted in 50 μL of HDAC buffer was mixed with 10 μL of diluted enzyme solution in HDAC buffer at room temperature. The HDAC reaction was started by adding 40 μL of substrate solution in HDAC buffer followed by 60 min of incubation with stirring at 37 °C. The reaction was stopped by adding 100 μL of trypsin solution. After a 30 min incubation with stirring at 37 °C, the release of AMC was monitored by measuring the fluorescence.

purified HDAC2 = biological target: T2, purified HDAC2 (Homo sapiens, UniProt Q92769); assay: Fluorogenic HDAC inhibition assay, HDAC2; assay type: biochemical; conditions: purified HDAC2, fluorometric substrate
T2 construct: purchased Cayman Chemical
T2 sequence (Q92769 whole entry): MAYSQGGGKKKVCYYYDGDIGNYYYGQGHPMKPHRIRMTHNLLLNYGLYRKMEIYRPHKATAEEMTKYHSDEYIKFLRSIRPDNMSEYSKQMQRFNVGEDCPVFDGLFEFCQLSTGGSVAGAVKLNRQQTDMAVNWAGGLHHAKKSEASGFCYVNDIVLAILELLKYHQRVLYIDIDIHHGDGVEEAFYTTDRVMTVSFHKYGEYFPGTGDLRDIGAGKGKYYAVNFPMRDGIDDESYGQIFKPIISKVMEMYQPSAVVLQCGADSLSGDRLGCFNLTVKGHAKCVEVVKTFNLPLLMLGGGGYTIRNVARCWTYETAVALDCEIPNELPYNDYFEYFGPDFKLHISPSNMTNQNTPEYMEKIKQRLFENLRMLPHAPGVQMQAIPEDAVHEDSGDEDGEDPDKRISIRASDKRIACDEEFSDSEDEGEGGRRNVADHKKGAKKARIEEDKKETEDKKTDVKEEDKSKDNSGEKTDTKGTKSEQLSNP
Protocol: as §1, §2, §3, §4

[2] = Aqueous solubility after sonication; assay type: physicochemical; conditions: water; after sonication for 30 min
Excerpt: The synthesis of the B-ring series mirrored that of the A-ring series producing B-ring hybrids AM-191 (n = 1, 27a), AM-192 (n = 3, 27b), and AM-193 (n = 5, 27c) in 9 steps (Fig. 3).

[3] = tested on: 60 human cell line panel of the National Cancer Institute; parameters: method as in PMID 26048026; conditions: cell lines from a broad range of tumors, including TNBCs; cited from earlier work
[4] = 6 h, RNAseq Supplemental table 1
[5] = 6 h, RNAseq Supplemental table 2, 1 µM AM-193, 10 µM DK-406, 100 nM 1,25D and SAHA
[6] = 24 h, RNAseq Supplemental table 2, 1 µM AM-193, 10 µM DK-406, 100 nM 1,25D and SAHA
[7] = 48 h, RNAseq Supplemental table 1

C=C1/C(=C\C=C2/CCC[C@]3(C)[C@@H]([C@H](C)CCCC(C)(C)O)CC[C@@H]23)C[C@@H](O)C[C@@H]1O [1,25D, 1α,25-Dihydroxyvitamin D3, reference compound]
Aaas 6h Log Fold (4TO7 cells; [4]): -1.012
Aacs 6h Log Fold (4TO7 cells; [4]): 1.070
Aaed1 6h Log Fold (4TO7 cells; [4]): -1.076
Aagab 6h Log Fold (4TO7 cells; [4]): 1.036
Aak1 6h Log Fold (4TO7 cells; [4]): -1.011
Aaas 6h Log Fold (4TO7 cells; [5]): -0.038
Aacs 6h Log Fold (4TO7 cells; [5]): 0.025
Aagab 6h Log Fold (4TO7 cells; [5]): 0.115
Aak1 6h Log Fold (4TO7 cells; [5]): 0.014
Aamdc 6h Log Fold (4TO7 cells; [5]): -0.075
Aaas 24h Log Fold (4TO7 cells; [6]): -0.054
Aacs 24h Log Fold (4TO7 cells; [6]): 0.127
Aagab 24h Log Fold (4TO7 cells; [6]): 0.138
Aak1 24h Log Fold (4TO7 cells; [6]): 0.00666
Aamdc 24h Log Fold (4TO7 cells; [6]): -0.360
Aaas 48h Log Fold (4TO7 cells; [7]): -1.436
Aacs 48h Log Fold (4TO7 cells; [7]): 1.516
Aaed1 48h Log Fold (4TO7 cells; [7]): -1.677
Aagab 48h Log Fold (4TO7 cells; [7]): 1.592
Aak1 48h Log Fold (4TO7 cells; [7]): 1.091
tumor growth and metastasis [1]: inactive alone or in combination

CCC(CC)(c1ccc(OCC(O)C(C)(C)C)c(C)c1)c1ccc(OCCCCCC(=O)NO)cn1 (stereo not shown) [AM-172]
IC50 (purified HDAC6): 0.3 µM
IC50 (purified HDAC2): 7.7 µM

CCC(CC)(c1ccc(OCC(=O)NO)cc1)c1ccc(OCC(O)C(C)(C)C)c(C)n1 (stereo not shown) [AM-191]
IC50 (purified HDAC6): 1.9 µM
IC50 (purified HDAC2): 8.1 µM

CCC(CC)(c1ccc(OCCCC(=O)NO)cc1)c1ccc(OCC(O)C(C)(C)C)c(C)n1 (stereo not shown) [AM-192]
IC50 (purified HDAC6): 0.5 µM
IC50 (purified HDAC2): 6.5 µM

CCC(CC)(c1ccc(OCCCCCC(=O)NO)cc1)c1ccc(OCC(O)C(C)(C)C)c(C)c1 (stereo not shown) [DK-367]
solubility at 30 min [2]: 1.91 µg/mL (≈ 3.82 µM)
tumor growth and metastasis [1]: reduced tumor growth and metastasis
antiproliferative activities [3]: displayed antiproliferative activities

O=C(CCCCCCC(=O)Nc1ccccc1)NO [SAHA, Suberoylanilide hydroxamic acid, reference compound]
tumor growth and metastasis [1]: inactive alone or in combination
